Measurements taken from the supplement of paper PMC9512659.

Experiments:
[1] = test system: Mycobacterium tuberculosis Erdman (pMV306hsp+LuxG13); assay: log2 fractional inhibitory concentration at 50% inhibition (log2 FIC); higher = more antagonistic
Description: (§1)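 DiaMOND pairwise dose responses of an equipotent two-drug mixture (1.5-fold, 10-dose series) against autoluminescent M. tuberculosis Erdman in 384-well plates. Growth inhibition was read by OD600 (luminescence for dormancy) in seven media at a constant and a terminal time point; metrics are means of at least biological duplicates. Einf and AUC25 higher = more potent; GRinf lower = more potent; log2FIC negative = synergy.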

[2] = test system: Mycobacterium tuberculosis Erdman (pMV306hsp+LuxG13); assay: GRinf, normalised growth-rate inhibition at infinite dose (GR value (unitless, negative = killing)); higher = less potent
Description: as §1

[3] = test system: Mycobacterium tuberculosis Erdman (pMV306hsp+LuxG13); assay: log2 fractional inhibitory concentration at 90% inhibition (log2 FIC); higher = more antagonistic
Description: as §1

[4] = test system: Mycobacterium tuberculosis Erdman (pMV306hsp+LuxG13); assay: AUC25, normalised area under the dose-response curve up to IC25 (normalised AUC (unitless)); higher = more potent
Description: as §1

[5] = test system: Mycobacterium tuberculosis Erdman (pMV306hsp+LuxG13); assay: Einf, effect of the drug pair at infinite dose (maximum growth inhibition) (fraction inhibition (0-1)); higher = more potent; extreme values may be limits of the assay
Description: as §1

CC[C@@H](CO)NCCN[C@@H](CC)CO [ethambutol] + CC(=O)NC[C@H]1CN(c2ccc(N3CCSCC3)c(F)c2)C(=O)O1 [sutezolid]
Conditions	AUC25, [4]	Einf, [5]	GRinf, [2]	log2 fractional inhibitory concentration, [1]	log2 fractional inhibitory concentration, [3]
growth medium: acidic pH 5.7, glycerol, time point: constant time point	0.122	0.837	-0.0739	-0.476	–
growth medium: acidic pH 5.7, glycerol, time point: terminal time point	0.0981	0.989	-0.214	0.638	0.0843
growth medium: butyrate 5 mM, time point: constant time point	0.0681	0.911	0.0455	0.936	–
growth medium: butyrate 5 mM, time point: terminal time point	0.0502	0.954	0.0337	0.703	-0.108
growth medium: cholesterol 0.05 mM, time point: constant time point	0.121	1	-1	0.779	-0.482
growth medium: cholesterol 0.05 mM, time point: terminal time point	0.104	1	-0.945	-0.083	-1.28
growth medium: cholesterol 0.2 mM (cholesterol-high), time point: constant time point	0.0903	1	-1	-0.151	–
growth medium: cholesterol 0.2 mM (cholesterol-high), time point: terminal time point	0.109	1	-0.852	-0.578	-0.0598
growth medium: standard 7H9 OADC glycerol, time point: constant = terminal time point (4.2 d)	0.0717	0.982	-0.118	0.607	0.432
growth medium: valerate 0.1%, time point: constant time point	0.132	0.931	-1	-0.351	–
growth medium: valerate 0.1%, time point: terminal time point	0.0852	0.975	-0.02	0.139	0.287

growth medium: hypoxic dormancy (butyrate + nitrate), then recovery
Conditions	AUC25, [4]	Einf, [5]	GRinf, [2]	log2 fractional inhibitory concentration, [1]	log2 fractional inhibitory concentration, [3]
time point: constant time point	0.0614	0.989	-0.104	0.45	–
time point: terminal time point	0.0966	0.979	-0.187	1.4	0.341

NNC(=O)c1ccncc1 [isoniazid] + CC(=O)NC[C@H]1CN(c2ccc(N3CCSCC3)c(F)c2)C(=O)O1 [sutezolid]
Conditions	AUC25, [4]	Einf, [5]	GRinf, [2]	log2 fractional inhibitory concentration, [1]	log2 fractional inhibitory concentration, [3]
growth medium: acidic pH 5.7, glycerol, time point: constant time point	0.0914	0.846	-0.123	0.123	–
growth medium: acidic pH 5.7, glycerol, time point: terminal time point	0.0816	0.972	-0.174	0.103	-0.00954
growth medium: butyrate 5 mM, time point: constant time point	0.0778	0.901	0.0944	0.357	–
growth medium: butyrate 5 mM, time point: terminal time point	0.0468	0.944	0.104	0.264	0.0935
growth medium: cholesterol 0.05 mM, time point: constant time point	0.026	0.988	-0.536	0.559	-0.209
growth medium: cholesterol 0.05 mM, time point: terminal time point	0.113	1	-1	0.493	0.0381
growth medium: cholesterol 0.2 mM (cholesterol-high), time point: constant time point	0.0844	0.994	-0.83	0.0991	0.448
growth medium: cholesterol 0.2 mM (cholesterol-high), time point: terminal time point	0.119	1	-0.942	-0.302	0.592
growth medium: standard 7H9 OADC glycerol, time point: constant = terminal time point (4.2 d)	0.0428	0.956	0.0933	-0.00832	-0.586
growth medium: valerate 0.1%, time point: constant time point	0.0744	0.872	-0.342	1.2	–
growth medium: valerate 0.1%, time point: terminal time point	0.0761	0.982	-0.0769	0.633	0.724

growth medium: hypoxic dormancy (butyrate + nitrate), then recovery
Conditions	AUC25, [4]	Einf, [5]	GRinf, [2]	log2 fractional inhibitory concentration, [1]	log2 fractional inhibitory concentration, [3]
time point: constant time point	0.0513	0.987	0.3	0.243	-0.281
time point: terminal time point	0.0273	0.958	0.448	0.741	-0.485
